Reference: DBAASP
Converted amounts (≈) assume the structure as drawn. “And” between values parts separate entries of the source, which are not always exact repeats. Equal values may be shown once.

How the values were obtained:
Assay in all cases: ≥ marks a high value that may be exact or a test limit, other limits are often not marked, values filed in µg/mL are converted to µM
[1] = system: Escherichia coli
[2] = system: Staphylococcus aureus
[3] = system: Escherichia coli ATCC 25922
[4] = system: Staphylococcus aureus ATCC 25923
[5] = system: Pseudomonas aeruginosa ATCC 27853

MIC [3]	MIC [4] [µM]	Structure (SMILES)	other results
2.64 µM and 5.27 µM		CC[C@H](C)[C@H](NC(=O)[C@H](CCCCN)NC(=O)[C@H](CCCN=C(N)N)NC(=O)[C@H](CC(C)C)NC(=O)[C@H](CCCN=C(N)N)NC(=O)[C@H](CO)NC(=O)[C@H](Cc1c[nH]c2ccccc12)NC(=O)[C@@H](NC(=O)[C@@H](N)CCCCN)C(C)C)C(=O)N[C@@H](Cc1ccccc1)C(=O)N[C@@H](CO)C(=O)N[C@H](C(=O)N[C@@H](CCCN=C(N)N)C(N)=O)[C@@H](C)O [KVWSRLRKIFSTR]	
> 43.1 µM	> 43.1	CC[C@H](C)[C@H](NC(=O)[C@H](CCCN=C(N)N)NC(=O)[C@H](CCCCN)NC(=O)[C@H](CC(C)C)NC(=O)[C@H](CC(C)C)NC(=O)CN)C(=O)N[C@@H](CCCCN)C(=O)N[C@H](C(=O)N[C@@H](CC(C)C)C(=O)N[C@@H](C)C(N)=O)[C@@H](C)O [GLLKRIKTLA]	
4 µM (≈ 9.1 µg/mL)	8 (≈ 18.2 µg/mL)	CC(C)C[C@H](NC(=O)[C@H](C)NC(=O)[C@H](CCCCN)NC(=O)[C@H](CC(C)C)NC(=O)[C@H](C)NC(=O)[C@H](CCCCN)NC(=O)[C@H](CCCCN)NC(=O)[C@H](CC(C)C)NC(=O)[C@H](C)NC(=O)[C@H](CCCCN)NC(=O)[C@H](CC(C)C)NC(=O)[C@H](C)NC(=O)[C@H](CCCCN)NC(=O)[C@H](CCCCN)NC(=O)[C@H](CC(C)C)NC(=O)[C@H](C)NC(=O)[C@H](CCCCN)NC(=O)[C@H](CC(C)C)NC(=O)[C@H](C)NC(=O)[C@@H](N)CCCCN)C(=O)N[C@@H](CCCCN)C(N)=O [KALKALKKALKALKKALKALK]	MIC [5]: 4 µM (≈ 9.1 µg/mL)
100 µM (≈ 114 µg/mL)		CC[C@H](C)[C@H](NC(=O)[C@H](CCCN=C(N)N)NC(=O)[C@H](CCCCN)NC(=O)[C@H](CC(C)C)NC(=O)[C@H](CC(C)C)NC(=O)CN)C(=O)N[C@@H](CCCCN)C(=O)N[C@@H](CO)C(=O)N[C@@H](CC(C)C)C(=O)N[C@@H](CC(C)C)C(N)=O [GLLKRIKSLL]	
90.5 µM (≈ 151 µg/mL)		CC(C)C[C@H](NC(=O)[C@H](Cc1ccccc1)NC(=O)[C@@H]1CCCN1C(=O)[C@H](C)NC(=O)[C@H](C)NC(=O)[C@H](Cc1c[nH]c2ccccc12)NC(=O)[C@@H]1CCCN1C(=O)[C@H](Cc1ccccc1)NC(=O)[C@H](CCCN=C(N)N)NC(=O)[C@H](CCCN=C(N)N)NC(=O)[C@@H](N)C(C)C)C(=O)N[C@@H](CCCN=C(N)N)C(=O)N[C@@H](CCCN=C(N)N)C(N)=O [VRRFPWAAPFLRR]	
64 µM (≈ 85.5 µg/mL)	64 (≈ 85.5 µg/mL)	CC(C)[C@H](NC(=O)[C@H](Cc1ccc(O)cc1)NC(=O)[C@H](CO)NC(=O)[C@H](CCCCN)NC(=O)[C@@H](N)Cc1c[nH]c2ccccc12)C(=O)N[C@@H](CCCN=C(N)N)C(=O)N[C@@H](CCCN=C(N)N)C(=O)N[C@@H](Cc1c[nH]c2ccccc12)C(=O)N[C@@H](CCCN=C(N)N)C(N)=O [WKSYVRRWR]	MIC [5]: > 100 µM
> 200 µM		CC[C@H](C)[C@H](NC(=O)[C@H](CCCN=C(N)N)NC(=O)[C@H](CCCCN)NC(=O)[C@H](CC(C)C)NC(=O)[C@H](CCSC)NC(=O)CN)C(=O)N[C@@H](CCCCN)C(=O)N[C@H](C(=O)N[C@@H](CC(C)C)C(=O)N[C@@H](CCSC)C(N)=O)[C@@H](C)O [GMLKRIKTLM]	
64 µM (≈ 108 µg/mL)	> 100	CC(C)[C@H](NC(=O)[C@H](CC(=O)O)NC(=O)[C@H](CO)NC(=O)[C@H](CCCCN)NC(=O)[C@@H](N)Cc1c[nH]c2ccccc12)C(=O)N[C@@H](CCCN=C(N)N)C(=O)N[C@@H](CCCN=C(N)N)C(=O)N[C@@H](Cc1c[nH]c2ccccc12)C(=O)N[C@@H](CCCN=C(N)N)C(=O)N[C@@H](CO)C(=O)N[C@@H](CCCN=C(N)N)C(=O)N[C@@H](Cc1ccc(O)cc1)C(N)=O [WKSDVRRWRSRY]	MIC [5]: > 100 µM
90.5 µM (≈ 151 µg/mL)		CC(C)C[C@H](NC(=O)[C@H](Cc1ccccc1)NC(=O)[C@@H]1CCCN1C(=O)[C@H](C)NC(=O)[C@H](Cc1c[nH]c2ccccc12)NC(=O)[C@H](C)NC(=O)[C@@H]1CCCN1C(=O)[C@H](Cc1ccccc1)NC(=O)[C@H](CCCN=C(N)N)NC(=O)[C@H](CCCN=C(N)N)NC(=O)[C@@H](N)C(C)C)C(=O)N[C@@H](CCCN=C(N)N)C(=O)N[C@@H](CCCN=C(N)N)C(N)=O [VRRFPAWAPFLRR]	

Second part, the molecule before the results:

Structure (SMILES)	MIC [3]	MIC [4] [µM]	other results
CSCC[C@@H]1NC(=O)[C@H](CC(C)C)NC(=O)[C@H](CCCN=C(N)N)NC(=O)[C@H](CO)NC(=O)[C@@H]2CSSC[C@@H]3NC(=O)[C@H](CO)NC(=O)CNC(=O)[C@H]([C@@H](C)O)NC(=O)[C@H](CSSC[C@H](N)C(=O)N[C@@H](CCCCN)C(=O)NCC(=O)N[C@@H](CCCCN)C(=O)NCC(=O)N[C@@H](C)C(=O)N[C@@H](CCCCN)C(=O)N2)NC(=O)[C@H](CSSC[C@@H](C(=O)NCC(=O)N[C@@H](CO)C(=O)O)NC(=O)[C@H](CCCCN)NC(=O)CNC(=O)[C@H](CO)NC(=O)[C@H](CCCN=C(N)N)NC3=O)NC(=O)[C@H](CC(=O)O)NC(=O)[C@H](Cc2ccc(O)cc2)NC1=O [CKGKGAKCSRLMYDCCTGSCRSGKCGS]			MIC [1]: > 500 µM; MIC [2]: > 500 µM
CC[C@H](C)[C@H](NC(=O)[C@@H](NC(=O)[C@@H](NC(=O)[C@H](Cc1c[nH]c2ccccc12)NC(=O)[C@@H](NC(=O)CN)C(C)C)[C@@H](C)O)[C@@H](C)O)C(=O)N[C@@H](CC(C)C)C(=O)NCC(=O)NCC(=O)N[C@@H](CC(C)C)C(=O)N[C@@H](CCCCN)C(=O)N[C@@H](CCCCN)C(=O)N[C@@H](Cc1ccccc1)C(=O)N[C@@H](C)C(=O)N[C@@H](CCCCN)C(=O)NCC(=O)NCC(=O)N[C@@H](CC(C)C)C(=O)N[C@@H](CCC(=O)O)C(=O)N[C@@H](C)C(=O)N[C@@H](CC(C)C)C(=O)N[C@H](C(=O)N[C@@H](CC(N)=O)C(=O)N1CCC[C@H]1C(=O)N[C@@H](CCCCN)C(=O)O)[C@@H](C)O [GVWTTILGGLKKFAKGGLEALTNPK]			MIC [1]: 40 µM (≈ 104 µg/mL); MIC [2]: 80 µM (≈ 208 µg/mL)
CC[C@H](C)[C@H](NC(=O)[C@H](CCCCN)NC(=O)[C@@H](NC(=O)[C@H](CCCN=C(N)N)NC(=O)[C@H](CCCCN)NC(=O)[C@H](CC(C)C)NC(=O)[C@H](CC(C)C)NC(=O)CN)[C@@H](C)CC)C(=O)N[C@@H](CC(C)C)C(=O)N[C@@H](CC(C)C)C(N)=O [GLLKRIKILL]	7.72 µM (≈ 8.99 µg/mL)	12 (≈ 14 µg/mL)	
CC[C@H](C)[C@H](NC(=O)[C@H](CC(C)C)NC(=O)[C@H](CCCCN)NC(=O)[C@H](CC(C)C)NC(=O)[C@H](CC(C)C)NC(=O)CN)C(=O)N[C@@H](CCCCN)C(=O)N[C@H](C(=O)N[C@@H](CC(C)C)C(=O)N[C@@H](CC(C)C)C(N)=O)[C@@H](C)O [GLLKLIKTLL]	1.8 µM (≈ 2 µg/mL)	1.8 (≈ 2 µg/mL)	
CC[C@H](C)[C@H](N)C(=O)NCC(=O)N[C@@H](CCCCN)C(=O)N[C@@H](CC(C)C)C(=O)N1CCC[C@H]1C(=O)N[C@@H](CCCCN)C(=O)N[C@@H](Cc1c[nH]c2ccccc12)C(=O)N[C@H](C(=O)N[C@H](C(=O)N[C@@H](CCCCN)C(=O)N[C@H](C(=O)N[C@H](C(=O)N[C@@H](CC(N)=O)C(=O)N[C@@H](CCCCN)C(=O)N[C@@H](Cc1ccccc1)C(=O)N[C@H](C(=O)N[C@@H](CCCCN)C(=O)N[C@@H](CCCCN)C(=O)O)[C@@H](C)O)C(C)C)[C@@H](C)O)[C@@H](C)CC)[C@@H](C)CC [IGKLPKWIIKTVNKFTKK]			MIC [1]: 2.1 µM (≈ 4.5 µg/mL)
CC[C@H](C)[C@H](NC(=O)CN)C(=O)N[C@@H](CCSC)C(=O)N[C@@H](CC(=O)O)C(=O)N[C@@H](CO)C(=O)N[C@H](C(=O)N[C@@H](CCCCN)C(=O)N[C@@H](CC(N)=O)C(=O)N[C@@H](C)C(=O)N[C@@H](C)C(=O)N[C@@H](CCCCN)C(=O)N[C@@H](CC(N)=O)C(=O)N[C@@H](CC(C)C)C(=O)N[C@@H](C)C(=O)NCC(=O)N[C@@H](CCC(N)=O)C(=O)N[C@@H](CC(C)C)C(=O)N[C@@H](CC(C)C)C(=O)N[C@@H](CC(=O)O)C(=O)N[C@H](C(=O)N[C@H](C(=O)N[C@@H](CCCCN)C(=O)N[C@H]1CSSC[C@@H](C(=O)O)NC(=O)[C@H](C)NC(=O)[C@H]([C@@H](C)O)NC(=O)[C@H]([C@@H](C)CC)NC(=O)[C@H](CCCCN)NC1=O)[C@@H](C)CC)[C@@H](C)O)C(C)C [GIMDSVKNAAKNLAGQLLDTIKCKITAC]	25 µM (≈ 73 µg/mL)		
CC(C)C[C@H](NC(=O)[C@H](C)NC(=O)[C@H](CCCCN)NC(=O)[C@H](C)NC(=O)[C@H](C)NC(=O)CNC(=O)[C@H](CCCCN)NC(=O)[C@H](CC(C)C)NC(=O)[C@H](CC(C)C)NC(=O)[C@H](CC(=O)O)NC(=O)[C@H](CCCCN)NC(=O)[C@H](Cc1ccccc1)NC(=O)CN)C(=O)N[C@H](C(=O)N[C@@H](CCCCN)C(=O)N[C@H](C(=O)N[C@H](C(=O)N[C@@H](CC(C)C)C(=O)N[C@@H](CCCCN)C(N)=O)C(C)C)[C@@H](C)O)C(C)C [GFKDLLKGAAKALVKTVLK]	5 µM (≈ 10 µg/mL)	18.8 (≈ 37.6 µg/mL)	
CC[C@H](C)[C@H](NC(=O)[C@H](CCCN=C(N)N)NC(=O)[C@H](CCCCN)NC(=O)[C@H](C)NC(=O)[C@H](CC(C)C)NC(=O)CN)C(=O)N[C@@H](CCCCN)C(=O)N[C@H](C(=O)N[C@@H](CC(C)C)C(=O)N[C@@H](CC(C)C)C(N)=O)[C@@H](C)O [GLAKRIKTLL]	> 34.2 µM	> 34.2	
CC(C)[C@H](NC(=O)[C@H](CCCCN)NC(=O)[C@@H](N)Cc1ccccc1)C(=O)N[C@H](C(=O)N[C@@H](Cc1c[nH]c2ccccc12)C(=O)N[C@@H](CCCCN)C(=O)N[C@H](C(=O)N[C@@H](CCCCN)C(=O)N[C@@H](Cc1c[nH]c2ccccc12)C(=O)N[C@@H](Cc1c[nH]c2ccccc12)C(=O)N[C@@H](CCCCN)C(=O)NCC(N)=O)[C@@H](C)O)[C@@H](C)O [FKVTWKTKWWKG]	4.38 µM (≈ 6.99 µg/mL)	7.59 (≈ 12.1 µg/mL)	
CC(C)C[C@H](NC(=O)[C@H](CCC(N)=O)NC(=O)[C@H](CCCN=C(N)N)NC(=O)[C@H](CCCN=C(N)N)NC(=O)[C@@H]1CCCN1C(=O)[C@H](C)N)C(=O)N[C@@H](CCCCN)C(=O)N[C@@H](Cc1c[nH]c2ccccc12)C(=O)O [APRRQLKW]	15.2 µM (≈ 16 µg/mL)		
